Test [1] deals with T1, BAK (Homo sapiens, UniProt Q16611).
T1 sequence (Q16611 15-186): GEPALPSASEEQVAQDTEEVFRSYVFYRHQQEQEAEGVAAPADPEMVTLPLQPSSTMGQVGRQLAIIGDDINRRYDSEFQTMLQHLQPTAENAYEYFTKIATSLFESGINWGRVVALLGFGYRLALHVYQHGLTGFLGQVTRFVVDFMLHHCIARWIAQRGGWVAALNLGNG
Kind of test: ligand-based 1D-NMR, […] 2D-NMR titration, competitive TR-FRET, nanoDSF. The test is classed as binding. Background: In TR-FRET formats the signal depends on donor and acceptor labels being close together.

Test [2] has as its target T1, BAK. Kind of test: ligand-based 1D-NMR. The test is classed as binding.

The IC50 is the concentration needed to halve the response being measured. High values mean lower potency, low ones higher potency. `Cc1ccc(C)c2sc(N)nc12` [A3] displayed an IC50 in test [1] of 1970 µM.
Consider `Cc1ccc(Cl)c2sc(N)nc12` [H6, SJ572946], for which half-maximal inhibition in test [2] (IC50) was put at 570 µM.

Source of the values: paper PMC9485059 (iScience, 2022).
